Measured values reported in article PMC8788131, “AMPlify: attentive deep learning model for discovery of novel antimicrobial peptides effective against WHO priority pathogens” (BMC Genomics, 2022).
In brackets after ≈: the same amount, converted by molar mass. Like-named read-outs stand apart in the source and are kept apart here. Where a SMILES comes first, the peptide text is derived from it. Where no end group is shown, it is not given here.

Legend:
E. coli ATCC 25922 = type: cell-based, Escherichia coli
Text: (§1) From the novel candidate AMP sequences predicted by AMPlify, 11 were selected for validation in vitro. Minimum inhibitory concentrations (MIC) and minimum bactericidal concentrations (MBC) were obtained using the AST procedures outlined by the Clinical and Laboratory Standards Institute (CLSI), with the recommended adaptations for testing cationic AMPs described by Hancock.
A panel of two Gram-positive and four Gram-negative bacterial isolates was generated to test predicted AMPs. Staphylococcus aureus ATCC 6538P, Streptococcus pyogenes (hospital isolate, unknown strain), Pseudomonas aeruginosa ATCC 10148, and Escherichia coli ATCC 9723H were obtained and tested at the University of Victoria. Additionally, a multi-drug resistant (MDR), carbapenemase-producing New-Delhi metallobetalactamase (CPO-NDM) clinical isolate of Escherichia coli was obtained from the BC Centre for Disease Control. […] The latter two strains were tested at the BC Centre for Disease Control using identical AST procedures.
(§2) Bacteria were streaked onto nonselective nutrient agar from frozen stocks and incubated for 18–24 h at 37 °C. To prepare a standardized bacterial inoculum, isolated colonies were suspended in Mueller-Hinton Broth (MHB) and adjusted to an optical density of 0.08–0.1 at 600 nm, equivalent to a 0.5 McFarland standard and representing approximately 1–2 × 10^8 CFU/mL (CFU: colony forming units). The inoculum was diluted 1/250 in MHB to the target concentration of (5 ± 3) × 10^5 CFU/mL. Total viability counts from the final inoculum were examined to confirm the target bacterial density was obtained.
(§3) Selected candidate AMPs were purchased from Genscript (Piscataway, NJ), where they were synthesized using the vendor’s Flexpeptide platform. Lyophilized peptides were suspended in sterile ultrapure water or filter-sterilized 0.2% acetic acid as recommended by solubility testing reports provided with the GenScript synthesis. AMPs were diluted from 2560 to 5 μg/mL by a two-fold serial dilution in a 96-well polypropylene microtitre plate before 100 μl of the standardized bacterial inoculum of (5 ± 3) × 10^5 CFU/mL was added to each well. This generated a final test range of 256 to 0.5 μg/mL. MIC values were reported as the peptide concentration that produced no visible bacterial growth after a 16–24 h incubation at 37 °C.
(§4) For each AMP dilution series, the contents of the MIC well and the two adjacent wells containing two- and four-fold MIC were plated onto nonselective nutrient agar and incubated for 24 h at 37 °C. The concentration which killed 99.9% of the initial inoculum was determined to be the MBC.

[1] = tested on: all E. coli strains tested; type: cell-based, Escherichia coli
Text: as §1
(§5) A panel of two Gram-positive and four Gram-negative bacterial isolates was generated to test predicted AMPs. Staphylococcus aureus ATCC 6538P, Streptococcus pyogenes (hospital isolate, unknown strain), Pseudomonas aeruginosa ATCC 10148, and Escherichia coli ATCC 9723H were obtained and tested at the University of Victoria. Additionally, a multi-drug resistant (MDR), carbapenemase-producing New-Delhi metallobetalactamase (CPO-NDM) clinical isolate of Escherichia coli was obtained from the BC Centre for Disease Control. E. coli ATCC […] was purchased from Cedarlane Laboratories (Burlington, Ontario, Canada) for comparison of AMP activity between a wild type, drug-susceptible control and the MDR strain. The latter two strains were tested at the BC Centre for Disease Control using identical AST procedures.
as §2, §3, §4

[2] = tested on: MDR E. coli (CPO-NDM) clinical isolate; type: cell-based, Escherichia coli
Text: as §1, §5, §2, §3, §4

[3] = tested on: Streptococcus pyogenes (unknown strain; hospital isolate); type: cell-based
Text: as §1, §5, §2, §3, §4

[4] = tested on: Escherichia coli ATCC 9723H; type: cell-based
Text: as §1, §5, §2, §3, §4

[5] = tested on: Staphylococcus aureus ATCC 6538P; type: cell-based
Text: as §1, §5, §2, §3, §4

[6] = tested on: at least one of the ten bacterial species tested: Bacillus subtilis, Micrococcus luteus, Staphyloccus aureus, Staphylococcus epidermis, Escherichia coli …; parameters: method as in Won and co-workers [2]; key: ✓: Whether the peptide shows antimicrobial activity against at least one of the ten bacterial species tested in the work; settings: activity against at least one of ten bacterial species; blank cell = not active; ref Won and co-workers [2]; cited from earlier work
[7] = range over all E. coli strains tested (ATCC 9723H, ATCC 25922, MDR CPO-NDM)

| Molecule | MBC (E. coli ATCC 25922; E. coli ATCC 25922, as Table 3, in µg/mL, range over three independent experiments, NI = no inhibition observed) [µg/mL] | MBC (E. coli ATCC 25922; E. coli ATCC 25922, plated on agar 24 h at 37 °C, kills 99.9% of inoculum, range over three independent experiments, NI = no inhibition observed) [µM] | MBC [1, 7] [µM] | MIC [1, 7] [µM] | MBC (E. coli ATCC 25922; ATCC 25922) [µg/mL] | MBC (E. coli ATCC 25922; ATCC 25922, 24 h) [µM] | MBC [2] [µg/mL] | MBC ([2]; 24 h) [µM] | MBC ([1]; all strains tested) [µM] | MIC ([1]; all strains tested) [µM] | MBC [3] [µg/mL] | MIC [3] [µg/mL] | MBC ([3]; 24 h) [µM] | MBC ([4]; ATCC 9723) [µg/mL] | MBC ([4]; ATCC 9723, 24 h) [µM] | MIC [2] [µg/mL] | MBC ([5]; ATCC 6538) [µg/mL] | MBC ([5]; ATCC 6538, 24 h) [µM] | MIC ([5]; ATCC 6538) [µM] | Active? [6] |
| --- | --- | --- | --- | --- | --- | --- | --- | --- | --- | --- | --- | --- | --- | --- | --- | --- | --- | --- | --- | --- |
| CC[C@H](C)[C@H](NC(=O)[C@H](CCCCN)NC(=O)[C@H](CCC(=O)O)NC(=O)[C@H](CCCCN)NC(=O)[C@H](CO)NC(=O)[C@H](CCCCN)NC(=O)[C@H](CCCNC(=N)N)NC(=O)[C@H](Cc1ccccc1)NC(=O)[C@H](Cc1ccccc1)NC(=O)[C@H](CC(=O)O)NC(=O)CNC(=O)[C@H](CC(C)C)NC(=O)[C@@H](N)CC(C)C)C(=O)NCC(=O)N[C@@H](CCCCN)C(=O)N[C@@H](CCC(=O)O)C(=O)N[C@@H](Cc1ccccc1)C(=O)N[C@@H](CCCCN)C(=O)N[C@@H](CCCNC(=N)N)C(=O)N[C@H](C(=O)N[C@H](C(=O)N[C@@H](CCC(N)=O)C(=O)N[C@@H](CCCNC(=N)N)C(=O)N[C@H](C(=O)N[C@@H](CCCCN)C(=O)N[C@@H](CC(=O)O)C(=O)N[C@@H](Cc1ccccc1)C(=O)N[C@@H](CC(C)C)C(=O)N[C@@H](CCCNC(=N)N)C(=O)N[C@@H](CC(N)=O)C(=O)N[C@@H](CC(C)C)C(=O)N[C@H](C(=O)N1CCC[C@H]1C(=O)N[C@@H](CCCNC(=N)N)C(=O)N[C@H](C(=O)N[C@@H](CCC(=O)O)C(=O)N[C@@H](CO)C(=O)O)[C@@H](C)O)C(C)C)[C@@H](C)CC)C(C)C)[C@@H](C)CC [LL37, reference compound] | 8 to 16 | 2 to 4 | 2 to 7 | 2 to 4 | – | – | – | – | – | – | – | – | – | – | – | – | – | – | – | – |
| CC[C@H](C)[C@H](NC(=O)[C@H](CCCCN)NC(=O)[C@@H](NC(=O)[C@H](C)NC(=O)[C@H](Cc1ccccc1)NC(=O)[C@H](CC(=O)O)NC(=O)[C@H](CCCCN)NC(=O)CNC(=O)[C@@H](NC(=O)[C@@H](NC(=O)[C@H](CCCCN)NC(=O)[C@@H](NC(=O)[C@@H](NC(=O)[C@H](CC(=O)O)NC(=O)[C@H](CC(C)C)NC(=O)[C@H](CC(C)C)NC(=O)CN)[C@@H](C)CC)[C@@H](C)CC)[C@@H](C)O)[C@@H](C)O)C(C)C)C(=O)N[C@@H](CC(C)C)C(=O)N[C@@H](CC(=O)O)C(=O)N[C@@H](CC(N)=O)C(=O)N[C@@H](CC(C)C)C(=O)N[C@@H](CCCCN)C(=O)N[C@@H](CS)C(=O)N[C@@H](CCCCN)C(=O)N[C@@H](CC(C)C)C(=O)N[C@@H](C)C(=O)NCC(=O)NCC(=O)N[C@@H](CS)C(=O)N1CCC[C@H]1C(=O)N1CCC[C@H]1C(=O)O [RaCa-1] (H-GLLDIIKTTGKDFAVKILDNLKCKLAGGCPP-OH; N-terminus and C-terminus assumed) | – | – | – | – | 32 to 128 | 10 to 39 | 64 to 128 | 20 to 39 | 10 to 79 | 10 to 39 | ≥ 256 | 256 (≈ 78.9 µM) | ≥ 79 | 128 to 256 | 39 to 79 | – | – | – | – | – |
| CC[C@H](C)[C@H](NC(=O)[C@@H](NC(=O)[C@@H]1CCCN1C(=O)[C@H](Cc1ccccc1)NC(=O)[C@@H](N)Cc1ccccc1)[C@@H](C)CC)C(=O)N[C@@H](C)C(=O)N[C@@H](CCCNC(=N)N)C(=O)N[C@@H](CC(C)C)C(=O)N[C@@H](C)C(=O)N[C@@H](C)C(=O)N[C@@H](CCCCN)C(=O)N[C@H](C(=O)N[C@H](C(=O)N1CCC[C@H]1C(=O)N[C@@H](CO)C(=O)N[C@@H](CC(C)C)C(=O)N[C@H](C(=O)N[C@@H](CS)C(=O)N[C@@H](C)C(=O)N[C@H](C(=O)N[C@H](C(=O)N[C@@H](CCCCN)C(=O)N[C@@H](CCCCN)C(=O)N[C@@H](CS)C(=O)O)[C@@H](C)O)C(C)C)C(C)C)[C@@H](C)CC)C(C)C [RaCa-2] (H-FFPIIARLAAKVIPSLVCAVTKKC-OH; N-terminus and C-terminus assumed) | – | – | – | – | 4 to 16 | 2 to 6 | 4 to 16 | 2 to 6 | – | 2 to 6 | 64 to 128 | – | 25 to 49 | 8 to 16 | 3 to 6 | 4 to 16 | 2 to 4 | 1 to 2 | – | – |
| CC[C@H](C)[C@H](NC(=O)[C@H](CO)NC(=O)[C@H](CCCCN)NC(=O)CNC(=O)[C@@H](NC(=O)[C@@H](NC(=O)[C@H](CCCCN)NC(=O)[C@@H](NC(=O)[C@@H](NC(=O)[C@H](CCC(=O)O)NC(=O)[C@H](Cc1c[nH]c2ccccc12)NC(=O)[C@H](CC(C)C)NC(=O)CN)[C@@H](C)O)[C@@H](C)CC)[C@@H](C)O)[C@@H](C)O)C(=O)N[C@@H](C)C(=O)N[C@@H](CC(C)C)C(=O)N[C@@H](CC(N)=O)C(=O)N[C@@H](CC(C)C)C(=O)N[C@@H](CC(C)C)C(=O)N[C@@H](CC(=O)O)C(=O)N[C@@H](CCCCN)C(=O)N[C@H](C(=O)N[C@@H](CCCCN)C(=O)N[C@@H](CS)C(=O)N[C@@H](CCCCN)C(=O)N[C@H](C(=O)N[C@@H](C)C(=O)NCC(=O)NCC(=O)N[C@@H](CS)C(=O)N1CCC[C@H]1C(=O)N1CCC[C@H]1C(=O)O)[C@@H](C)CC)[C@@H](C)CC [RaCa-3] (H-GLWETIKTTGKSIALNLLDKIKCKIAGGCPP-OH; N-terminus and C-terminus assumed) | – | – | – | – | 8 to 16 | 2 to 5 | 16 to 64 | 5 to 20 | 2 to 20 | 2 to 10 | – | – | – | 16 to 32 | 5 to 10 | 16 to 32 | – | – | – | – |
| FFPRVLPLANKFLPTIYCALPKSVGN [RaCa-7] | – | – | – | – | 16 to 128 | 6 to 44 | 16 to 128 | 6 to 44 | 6 to 88 | 6 to 44 | – | – | – | 32 to 256 | 11 to 88 | – | – | – | ≥ 88 | – |
| Gaegurin 5 [GGN5] | – | – | – | – | – | – | – | – | – | – | – | – | – | – | – | – | – | – | – | ✓ |
